The text below walks through data of US8895746B2 (University of Central Florida Research Foundation, Inc., priority 2009, dated 2014).

For assay [1], the system named is NIH3T3/v-Ras. The assay can be described thus: Soft-agar colony formation assay. Type of assay: cell-based, mouse. The conditions noted are these: concentrations that inhibit Stat3. The procedure:
Colony formation assays were carried out in 6-well dishes, as described previously (16,37). Briefly, each well contained 1.5 ml of 1% agarose in Dulbeco's modified Eagle's medium as the bottom layer and 1.5 ml of 0.5% agarose in Dulbeco's modified Eagle's medium containing 4000 or 6000 NIH3T3/v-Src or NIH3T3/v-Ras fibroblasts, respectively, as the top layer. Treatment with S3I201.1066 was initiated 1 day after seeding cells by adding 80 μl of medium with or without S3I20.1.1066, and repeating every 3 days, until large colonies were evident. Colonies were quantified by staining with 20 μl of 1 mg/ml crystal violet, incubating at 37° C. overnight, and counting the next day under phase contrast microscope.

Assay [2] addresses T1, Stat3:Stat3 complex (Mus musculus, UniProt P42227).
T1 construct: endogenous in cells; host or cells: EGF-stimulated NIH3T3/hEGFR mouse fibroblasts (nuclear extract)
The assay can be described thus: EMSA selectivity, nuclear extracts of EGF-stimulated NIH3T3/hEGFR, hSIE probe. In kind it is biochemical. The protocol:
(§1) Nuclear extract preparations and electrophoretic mobility shift assay (EMSA) were carried out as previously described (28,33). […] Except where indicated, nuclear extracts were pre-incubated with compound for 30 min at room temperature prior to incubation with the radiolabeled probe for 30 min at 30° C. before subjecting to EMSA analysis.
(In general: Mobility shift assays separate free from complexed probe on a gel.)

Assay [3] addresses T2, Stat1:Stat3 complex (Mus musculus, UniProt P42227).
T2 construct: endogenous in cells; host or cells: EGF-stimulated NIH3T3/hEGFR mouse fibroblasts (nuclear extract)
The description is as above. Type of assay: biochemical. The procedure:
as §1

For assay [4], the target named is T3, Stat1:Stat1 complex (Mus musculus, UniProt P42225).
T3 construct: endogenous in cells; host or cells: EGF-stimulated NIH3T3/hEGFR mouse fibroblasts (nuclear extract)
T3 sequence (P42225 2-749 limits assumed): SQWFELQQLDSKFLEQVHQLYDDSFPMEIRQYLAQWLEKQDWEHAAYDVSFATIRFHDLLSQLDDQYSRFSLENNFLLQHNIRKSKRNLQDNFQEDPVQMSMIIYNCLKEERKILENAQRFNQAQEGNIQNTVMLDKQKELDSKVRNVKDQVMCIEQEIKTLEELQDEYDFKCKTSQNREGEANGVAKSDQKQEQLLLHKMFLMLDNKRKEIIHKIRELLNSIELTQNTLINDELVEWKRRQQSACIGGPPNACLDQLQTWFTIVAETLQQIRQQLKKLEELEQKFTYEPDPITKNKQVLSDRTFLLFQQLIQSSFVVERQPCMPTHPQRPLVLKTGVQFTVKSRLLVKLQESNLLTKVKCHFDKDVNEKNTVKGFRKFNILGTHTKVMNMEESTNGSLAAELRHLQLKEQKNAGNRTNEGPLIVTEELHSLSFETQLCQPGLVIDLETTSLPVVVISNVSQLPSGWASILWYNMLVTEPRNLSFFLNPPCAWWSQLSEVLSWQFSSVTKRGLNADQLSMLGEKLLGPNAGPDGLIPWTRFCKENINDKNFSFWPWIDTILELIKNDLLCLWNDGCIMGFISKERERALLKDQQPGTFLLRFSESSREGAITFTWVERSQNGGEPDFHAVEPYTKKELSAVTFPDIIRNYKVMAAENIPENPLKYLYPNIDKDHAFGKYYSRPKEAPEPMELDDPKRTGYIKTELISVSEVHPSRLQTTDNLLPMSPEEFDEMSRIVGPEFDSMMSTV
Described as above. In kind it is biochemical. The protocol:
as §1

The subject of assay [5] is NIH3T3, Stat3-null MEFs (Stat3−/−), HPDEC, TE71. The assay can be described thus: Viability and growth (CyQuant, trypan blue exclusion), cells without aberrant Stat3. In kind it is cell-based, mouse, human. The conditions noted are these: up to 200 μM. The source says: (§2) Aberrant Stat3 promotes malignant cell proliferation, survival and malignant transformation (10, 20, 42). Given that S3I201.1066 disrupts Stat3 activation, we asked the question whether this agent is able to selectively decrease the viability and growth of malignant cells that harbor aberrant Stat3 activity.

For assay [6], the system named is Stat3-null MEFs (Stat3−/−). The assay can be described thus: CyQuant cell viability. In kind it is cell-based, mouse.
From the text: as §2

For assay [7], the system named is NIH3T3. The assay can be described thus: CyQuant cell viability. Type of assay: cell-based, mouse.
From the text: as §2

For assay [8], the system named is Stat3-dependent luciferase reporter (pLucTKS3). The assay can be described thus: Stat3-dependent luciferase reporter in NIH3T3/v-Src. The conditions noted are these: NIH3T3/v-Src stably expressing pLucTKS3; 36-h treatment. Type of assay: cell-based, mouse. The source says:
Positions of STATs:DNA complexes or proteins in gel are labeled; control lanes (0) represent nuclear extracts treated with 0.05% DMSO, or nuclear extracts or whole-cell lysates prepared from 0.05% DMSO-treated cells. Data are representative of 3-4 independent determinations. **—<0.01;
Normal mouse fibroblasts (NIH3T3) and counterparts transformed by v-Src (NIH3T3/v-Src), v-Ras (NIH3T3/v-Ras) or overexpressing the human epidermal growth factor (EGF) receptor (NIH3T3/hEGFR), and the human breast cancer (MDA-MB-231) and pancreatic cancer (Panc-1) cells have all been previously reported (15,27-29). The normal human pancreatic duct epithelial cells (HPDEC) was a kind gift from Dr. Tsao, (OCI, UHN-PMH, Toronto) (30), Stat3 knockout mouse embryonic fibroblasts was generously provided by Dr. Poli (31), and the mouse thymic epithelial stromal cells (TE-71) was a generous gift from Dr. Farr (32). The Stat3dependent reporter, pLucTKS3 and the v-Src transformed mouse fibroblasts that stably express pLucTKS3 have been previously reported (15, 33). Cells were grown in Dulbecco's modified Eagle's medium (DMEM) containing 10% heat-inactivated fetal bovine serum, or in the case of HPDEC, they were grown in Keratinocyte-SFM media supplemented with 0.2 ng EGF, 30 μg/ml bovine pituitary extract and containing antimycol.

T2 sequence (P42227 2-770 limits assumed, one chain of several): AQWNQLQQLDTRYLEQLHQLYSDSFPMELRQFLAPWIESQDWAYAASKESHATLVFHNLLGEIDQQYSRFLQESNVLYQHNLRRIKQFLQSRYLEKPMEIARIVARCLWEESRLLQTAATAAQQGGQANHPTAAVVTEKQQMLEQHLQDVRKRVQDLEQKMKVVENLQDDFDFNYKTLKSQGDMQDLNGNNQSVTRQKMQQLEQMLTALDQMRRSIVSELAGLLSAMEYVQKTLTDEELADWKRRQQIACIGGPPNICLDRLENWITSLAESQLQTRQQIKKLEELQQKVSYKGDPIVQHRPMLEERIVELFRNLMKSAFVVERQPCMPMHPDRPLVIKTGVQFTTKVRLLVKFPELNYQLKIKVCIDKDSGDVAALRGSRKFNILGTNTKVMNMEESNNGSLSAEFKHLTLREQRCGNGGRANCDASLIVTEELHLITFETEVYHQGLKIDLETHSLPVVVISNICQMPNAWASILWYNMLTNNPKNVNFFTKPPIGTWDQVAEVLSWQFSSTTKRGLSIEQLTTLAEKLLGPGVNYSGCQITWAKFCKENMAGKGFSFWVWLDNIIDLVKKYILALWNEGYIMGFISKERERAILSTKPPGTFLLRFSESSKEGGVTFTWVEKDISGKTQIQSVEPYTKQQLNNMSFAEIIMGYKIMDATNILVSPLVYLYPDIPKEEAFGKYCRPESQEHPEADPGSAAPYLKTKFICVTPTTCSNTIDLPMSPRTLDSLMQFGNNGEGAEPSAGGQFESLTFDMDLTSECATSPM
T1 sequence (P42227 2-770 limits assumed, one chain of several): as above

Take `Cc1ccc(S(=O)(=O)N(C)CC(=O)N(Cc2ccc(C3CCCCC3)cc2)c2ccc(C(=O)O)c(O)c2)cc1` [S3I-201.1066]: in assay [1], the soft-agar growth entry is listed as “minimal effect”. Moreover, the “effect on Stat3:Stat3 complex with hSIE probe” value was “significantly disrupted” in assay [2] (50 μM) and “completely disrupted” in assay [2] (100 μM). Besides, the “effect on Stat1:Stat3 complex” value in assay [3] (50 μM) is given as “similarly repressed”; in assay [3] (100 μM), “completely disrupted”. Also, the “inhibition of Stat1:Stat1 complex” value was “no significant inhibition” in assay [4] (50 μM), “moderate inhibition” in assay [4] (100 μM) and “complete inhibition” in assay [4] (200 μM). Moreover, the viability and growth result in assay [5] is “not significantly altered”. The “derived IC60 values, viability” value in assay [6] and in assay [7] was above 200 μMm throughout. Besides, the “induction of the Stat3-dependent reporter” value in assay [8] is recorded as “significantly (p<0.01) repressed”.
